Tests used:
Test in all cases: Assay for Inhibition of Compounds Provided in the Present Application on CYP Enzymes
Cytochrome P450 2C19 = Cytochrome P450 2C19 (Homo sapiens, UniProt P33261)
Description: (§1) Typical substrate metabolic responses of five major human CYP subtypes (CYP1A2, CYP2C9, CYP2C19, CYP2D6, CYP3A4) were evaluated using 150-donor pooled human liver microsomes (purchased from Corning, Cat. No.: 452117). The influence of different concentrations of each compound to be tested on metabolic responses of phenacetin (CYP1A2), diclofenac sodium (CYP2C9), S-mephenytoin (CYP2C19), bufuralol hydrochloride (CYP2D6), and midazolam (CYP3A4) was determined by liquid chromatography-mass spectrometry (LC/MS/MS). The reaction system (200 μL) (100 mmol/L phosphate buffer, pH 7.4, containing DMSO, acetonitrile and methanol at a volume ratio of 0.3%:0.6%:0.1%) of 30 μM phenacetin, 10 μM diclofenac sodium, 35 μM S-mephenytoin, 5 μM bufuralol hydrochloride, 3 μM midazolam, 1 mM reduced nicotinamide adenine dinucleotide phosphate (NADPH), the compound to be tested (at concentrations of 0.1, 0.3, 1, 3, 10, 30 μmol/L, respectively), or positive compound or blank control, with pooled human liver microsomes (0.2 mg/mL) was incubated at 37° C. for 5 min. Then 200 μL of acetonitrile solution containing 3% formic acid and 40 nM internal standard verapamil was added and centrifuged at 4000 rpm for 50 min. The mixture was cooled on ice for 20 min and centrifuged at 4000 rpm for 20 min to precipitate the protein. Then 200 μL of supernatant was analyzed by LC-MS/MS.The peak area was calculated from the chromatogram.

Cytochrome P450 2C9 = Cytochrome P450 2C9 (Homo sapiens, UniProt P11712)
Description: as §1

Cytochrome P450 1A2 = target: T1, Cytochrome P450 1A2 (Homo sapiens, UniProt P05177)
T1 sequence (P05177 whole entry): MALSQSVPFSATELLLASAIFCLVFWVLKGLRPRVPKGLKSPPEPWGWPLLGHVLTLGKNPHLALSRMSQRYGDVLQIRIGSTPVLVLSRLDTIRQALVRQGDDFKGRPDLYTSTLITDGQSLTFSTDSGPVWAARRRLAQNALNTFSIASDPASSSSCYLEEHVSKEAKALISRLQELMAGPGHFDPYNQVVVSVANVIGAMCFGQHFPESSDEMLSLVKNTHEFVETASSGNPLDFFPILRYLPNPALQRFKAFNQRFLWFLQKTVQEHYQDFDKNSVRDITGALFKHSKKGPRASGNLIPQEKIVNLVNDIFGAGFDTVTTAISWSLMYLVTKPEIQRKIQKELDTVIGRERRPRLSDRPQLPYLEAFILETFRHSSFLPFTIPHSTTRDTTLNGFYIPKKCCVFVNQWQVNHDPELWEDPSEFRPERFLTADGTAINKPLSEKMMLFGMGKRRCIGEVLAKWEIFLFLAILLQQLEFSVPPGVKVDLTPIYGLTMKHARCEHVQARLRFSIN
Description: as §1

Cytochrome P450 2C19, sequence (P33261 whole entry): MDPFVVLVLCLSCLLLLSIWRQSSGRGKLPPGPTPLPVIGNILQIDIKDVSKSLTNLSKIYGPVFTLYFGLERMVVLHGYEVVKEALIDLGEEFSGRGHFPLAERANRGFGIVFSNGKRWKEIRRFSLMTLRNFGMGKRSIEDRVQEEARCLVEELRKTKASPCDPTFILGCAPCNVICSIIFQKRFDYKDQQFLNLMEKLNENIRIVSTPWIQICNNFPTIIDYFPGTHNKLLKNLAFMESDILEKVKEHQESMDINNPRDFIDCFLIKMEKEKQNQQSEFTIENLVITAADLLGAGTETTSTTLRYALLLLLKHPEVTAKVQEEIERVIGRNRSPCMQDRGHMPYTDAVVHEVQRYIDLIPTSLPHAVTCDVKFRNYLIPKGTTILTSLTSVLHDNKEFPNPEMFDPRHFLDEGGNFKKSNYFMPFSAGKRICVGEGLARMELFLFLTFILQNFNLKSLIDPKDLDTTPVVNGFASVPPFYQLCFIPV
Cytochrome P450 2C9, sequence (P11712 whole entry): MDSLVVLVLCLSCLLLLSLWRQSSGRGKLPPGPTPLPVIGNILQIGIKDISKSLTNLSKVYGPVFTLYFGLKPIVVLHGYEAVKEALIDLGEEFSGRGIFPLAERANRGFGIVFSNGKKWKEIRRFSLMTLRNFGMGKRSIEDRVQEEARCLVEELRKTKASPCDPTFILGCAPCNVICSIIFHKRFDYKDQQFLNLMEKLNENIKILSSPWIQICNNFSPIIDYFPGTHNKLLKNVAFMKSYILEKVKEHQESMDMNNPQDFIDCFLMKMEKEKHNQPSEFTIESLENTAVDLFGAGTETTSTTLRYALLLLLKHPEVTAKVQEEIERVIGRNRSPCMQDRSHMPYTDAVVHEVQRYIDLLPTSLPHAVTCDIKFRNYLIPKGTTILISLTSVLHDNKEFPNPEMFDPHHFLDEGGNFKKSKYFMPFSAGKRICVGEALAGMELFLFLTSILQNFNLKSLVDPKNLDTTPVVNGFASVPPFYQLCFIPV

IC50 (Cytochrome P450 2C19): 17.1 µM
IC50 (Cytochrome P450 2C9): 28.9 µM
IC50 (Cytochrome P450 1A2): > 30 µM
SMILES: COc1nccc(C2CC2)c1-c1ncc2c(n1)N(Cc1ccc(-c3nc(C(F)(F)F)cn3C)cc1)CC(=O)N2C [US20240226107, Compound 11]
